Consider 2 molecules from article PMC5274652, “Antagonizing Retinoic Acid Receptors Increases Myeloid Cell Production by Cultured Human Hematopoietic Stem Cells” (Archivum Immunologiae et Therapiae Experimentalis, 2016).

SMILES strings stand for the structures.

Test [1] concerns zebra fish embryos. The arrangement: method as in Wai et al. 2015. The note with it: 10 nM, ref Wai et al. 2015; cited from earlier work.
Test [2] has as its target T1, RARα (Homo sapiens, UniProt P10276).
T1 sequence (P10276 183-417 limits assumed): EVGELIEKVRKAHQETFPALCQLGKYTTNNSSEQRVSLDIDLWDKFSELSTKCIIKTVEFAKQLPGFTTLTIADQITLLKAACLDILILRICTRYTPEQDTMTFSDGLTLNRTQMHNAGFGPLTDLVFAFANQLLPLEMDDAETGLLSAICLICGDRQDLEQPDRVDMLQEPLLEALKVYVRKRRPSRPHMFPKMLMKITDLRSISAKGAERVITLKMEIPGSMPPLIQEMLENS
An excerpt: (§1) For transactivation studies, we used CV-1 kidney fibroblast cells and LNCaP prostate adenocarcinoma cells that can be readily and reproducibly transfected with plasmids and reporters. Transactivation assays using CV-1 cells were undertaken essentially as described previously (Nagpal et al. [1995]). Briefly, CV-1 cells were transiently transfected with a plasmid-containing ERE-tk-Luc promoter-reporter construct using Lipofectamine as described in the manufacturer’s protocol (Fisher Scientific, Loughborough, UK). ERE-tk-Luc transcript comprises a luciferase reporter under control of an estrogen receptor response element. The cells were also transiently transfected with expression vector encoding a fusion protein containing the ligand-binding domain of RARα, RARβ, or RARγ fused to an estrogen receptor DNA-binding domain. Twenty-four hours after transfection, the cells were treated with retinoids under test for 16 h in culture medium-containing 2.5 % charcoal-treated FBS and lysed for determination of luciferase and β-galactosidase activities. Luciferase activity was measured using the Dual-Luciferase Reporter 100 Assay System (Promega, Southampton, UK), and β-galactosidase activity was determined by colorimetric assay. The reporter activity was normalized against β-galactosidase activity. […]

Test [3] concerns the target T2, RARβ (Homo sapiens, UniProt P10826).
T2 construct: expressed in transfected cells; host or cells: CV-1 kidney fibroblast cells
T2 sequence (P10826 183-417 limits assumed): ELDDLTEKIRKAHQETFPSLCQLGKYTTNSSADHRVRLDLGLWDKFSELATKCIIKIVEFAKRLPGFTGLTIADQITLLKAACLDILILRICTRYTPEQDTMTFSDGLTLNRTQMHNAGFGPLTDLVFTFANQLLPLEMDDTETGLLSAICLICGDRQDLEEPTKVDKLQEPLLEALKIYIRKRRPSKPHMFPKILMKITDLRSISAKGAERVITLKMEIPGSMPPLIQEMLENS
Briefly: Retinoid receptor transactivation assay in transfected CV-1 cells, RARβ. In kind it is cell-based.
Excerpt: as §1

Test [4] deals with T3, RARγ (Homo sapiens, UniProt P13631).
T3 construct: expressed in transfected cells; host or cells: CV-1 kidney fibroblast cells
T3 sequence (P13631 185-419 limits assumed): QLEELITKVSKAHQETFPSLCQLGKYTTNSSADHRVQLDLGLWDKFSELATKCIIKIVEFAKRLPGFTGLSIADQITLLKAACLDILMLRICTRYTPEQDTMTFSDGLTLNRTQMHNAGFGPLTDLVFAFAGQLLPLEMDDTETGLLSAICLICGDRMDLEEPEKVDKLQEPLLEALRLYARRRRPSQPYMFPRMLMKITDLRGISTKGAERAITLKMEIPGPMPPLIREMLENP
Description: Retinoid receptor transactivation assay in transfected CV-1 cells, RARγ. Type of test: cell-based.
Excerpt: as §1

Test [5] relates to NB-4 cells. Briefly: Differentiation of NB-4 cells (CD11b/CD14 flow cytometry). In kind it is cell-based, human. The note with it: NB-4 cells, 96 h. On the procedure: (§2) NB-4 and KG1 cells were obtained from the German Resource Center for Biological Material (DSMZ GmbH, Braunschweig, Germany). The cells were grown in RPMI-1640 medium supplemented with 10 % fetal bovine serum (FBS), 100 U/ml penicillin, and 100 µg/ml streptomycin (Sigma, St Louis, MO, USA). Cells were grown at 37 °C in 5 % CO2.
(§3) The expression of differentiation markers at the cell surface was determined by flow cytometry. Differentiation of NB-4 and KG1 cells was measured by staining using the monoclonal antibodies CD11b-FITC and CD14-PE and appropriately labeled isotype controls (all from ImmunoTools, Friesoythe, Germany). Differentiation of human CD34^+ve cells was measured by triple-color staining using various cocktails of phycoerythrin-, fluorescein isothyocyanate-, and PerCP-monoclonal antibodies (from Becton–Dickinson, San Jose, CA, USA). The markers used to identify cell populations were as follows: CD45^+ve leukocytes; CD34^+ve/CD133^+ve HSCs; CD33^+ve/CD13^+ve immature myeloid; CD117^+ve myeloblasts and promyelocytes; CD11b^+ve/CD15^+ve mature myeloid; CD11b^+ve/CD65^+ve neutrophils; CD11b^+ve/CD14^+ve monocytes; glycophorin^+ve A erythroid cells; CD61^+ve megakaryoblasts and platelets; CD2^+ve/CD5^+ve/CD7^+ve T cells and NK cells; CD56^+ve NK cells; CD19^+ve/CD20^+ve B cells; and CD10^+ve B lymphocyte progenitors; and present on mature neutrophils and DR^+ve progenitors and present on mature monocytes. The cells were stained with 1 µl of the fluorescently labeled antibody (or the appropriate control immunoglobulin) for 1 h on ice. Next, they were washed with ice-cold phosphate-buffered saline (PBS) and suspended in 0.5 ml PBS supplemented with 0.1 % bovine serum albumin (Sigma, St Louis, MO, USA) prior to analysis on FACS Calibur flow cytometer (Becton–Dickinson, San Jose, CA, USA). The acquisition parameters were set for an isotype control. Cells were analyzed using a FACSCalibur, and data analysis was performed using the CellQuest Pro software (Becton–Dickinson, San Jose, CA, USA).
(Flow cytometry measures light scatter and fluorescence of single cells or particles in a stream.)

Test [6] deals with KG1 cells. Briefly: Differentiation of KG1 cells (CD11b/CD14 flow cytometry). Type of test: cell-based, human. To be noted: KG1 cells, 1 μM combined with 10 nM 1,25D, 96 h. Here is the method: as §2, §3

On to `CC1(C)CCC(C)(C)c2cc(/C(=N\O)c3cc4cc(C(=O)O)ccc4[nH]3)ccc21` [AGN205327], for which the “effect on stem cell populations and development” value in test [1] is “Stem cell populations were maintained at the expense of the development of bones and neural ganglia”.

As to `CC1=C(/C=C/C(C)=C/C=C/C(C)=C/C(=O)O)C(C)(C)CCC1` [ATRA, all-trans retinoic acid], in test [2] (discussion, order of magnitude), the “concentration required to activate RARα (reporter assays)” value is given as ~10^−8 M. Also, the “ATRA concentration at which maximal effect on RARα transactivation is observed” value in test [2] (transfected CV-1 cells) is on record as ~10^−7 M. In test [3], the “ATRA concentration of maximal activation, RARβ” value is reported as ~ 5 × 10^−9 M. Besides, the “concentration at which RARγ is activated (reporter assays)” value in test [4] (discussion, order of magnitude) is reported as ~10^−10 M. Further, in test [4] (transfected CV-1 cells), the “ATRA concentration of maximal activation, RARγ” value was ~ 5 × 10^−9 M. In addition, the “CD11b+ve/CD14+ve cells (monocyte differentiation)” value is reported as ~ 36% in test [5] (1 μM combined with 10 nM 1,25D); ~ 10% in test [5] (1 μM, alone); 26% in test [6].
